Data as given in patent publication US9439918B2 (priority 2008, dated 2016).
Converted amounts (≈) assume the structure as drawn. Read-outs that look alike come from different tables or passages of the source.

How the values were obtained:
[1] = tested on: intraphagocytic L. pneumophila ATCC 33153; type: cell-based, Legionella pneumophila; conditions: for Emax, CFU decrease from original inoculum: 48 h; for Emax, Δ log10 CFU at 24 h compared to the post-phagocytosis inoculum: L.p., intracellular
Shigella spp. (40) = test: MIC, CLSI broth microdilution; type: cell-based
[2] = tested on: intraphagocytic L. monocytogenes EGD; type: cell-based, Listeria monocytogenes; conditions: for Emax, CFU decrease from original inoculum: 24 h
Salmonella spp. (20) = test: MIC, CLSI broth microdilution; type: cell-based; conditions: for MIC50 / MIC90: Salmonella
H. pylori (23) = test: MIC, agar dilution / Etest
C. jejuni (20) = test: MIC, agar dilution / Etest; conditions: for MIC50 / MIC90: Campylobacter jejuni; for MIC50: read-out: MIC 50% (Etest); for MIC90: read-out: MIC 90% (Etest)
streptococci = test: MIC50 against Gram-positive cocci; type: cell-based
staphylococci = test: MIC50 against Gram-positive cocci; type: cell-based
[3] = tested on: L. pneumophila ATCC 33153; type: cell-based, Legionella pneumophila
[4] = Helicobacter pylori, read-out: MIC 50% (Etest)
[5] = C. jejuni, 20 strains, agar dilution

SMILES: CC[C@H]1OC(=O)[C@H](C)[C@@H](O[C@H]2C[C@@](C)(OC)[C@@H](O)[C@H](C)O2)[C@H](C)[C@@H](O[C@@H]2O[C@H](C)C[C@H](N(C)C)[C@H]2O)[C@](C)(O)C[C@@H](C)CN(C)[C@H](C)[C@@H](O)[C@]1(C)O [AZI, azithromycin]
- Emax, CFU decrease from original inoculum [1]: −0.83 log10 units
- Emax, Δ log10 CFU at 24 h compared to the post-phagocytosis inoculum [1]: −0.83 Δ log10 CFU
- MIC50 (Shigella spp. (40); Shigella spp., 40 strains): 4 µg/mL (≈ 5.34 µM)
- MIC90 (Shigella spp. (40); Shigella spp., 40 strains): 8 µg/mL (≈ 10.7 µM)
- Emax, Δ log10 CFU at 24 h compared to the post-phagocytosis inoculum [2]: −0.81 Δ log10 CFU
- Emax, CFU decrease from original inoculum [2]: −0.81 log10 units
- MIC50 (Salmonella spp. (20)): 4 µg/mL (≈ 5.34 µM)
- MIC90 (Salmonella spp. (20)): 8 µg/mL (≈ 10.7 µM)
- MIC Range (Salmonella spp. (20); Salmonella spp., 20 strains): 2 to 8 µg/mL
- MIC Range (Salmonella spp. (20); Salmonella spp., 20 strains, listed as AZ): 2-8 (AZ) μg/ml

SMILES: CC1(C)S[C@@H]2[C@H](NC(=O)[C@H](N)c3ccccc3)C(=O)N2[C@H]1C(=O)O [Ampicillin]
- MIC50 (H. pylori (23); [4]): ≤ 0.015 µg/mL

SMILES: CC[C@H]1OC(=O)[C@@](C)(F)C(=O)[C@H](C)[C@@H](OC2OC(C)CC(N(C)C)C2O)[C@@](C)(OC)C[C@@H](C)C(=O)[C@H](C)[C@H]2N(CCCCn3cc(-c4cccc(N)c4)nn3)C(=O)O[C@]12C (stereo partly drawn) [CEM-101, 11-N-4-(3-aminophenyl)-[1,2,3]triazol-1-yl]-butyl-5-desosaminyl-3-oxo-2-fluoro-erythronolide A,-11,12-cyclic carbamate]
- Emax, CFU decrease from original inoculum [1]: −1.03 log10 units
- Emax, Δ log10 CFU at 24 h compared to the post-phagocytosis inoculum [1]: −1.03 Δ log10 CFU
- No. of strains at MIC 0.06 (Shigella spp. (40); MIC distribution, 40 strains): 0
- No. of strains at MIC 0.12 (Shigella spp. (40); MIC distribution, 40 strains): 0
- No. of strains at MIC 0.25 (Shigella spp. (40); MIC distribution, 40 strains): 0
- No. of strains at MIC 0.5 (Shigella spp. (40); MIC distribution, 40 strains): 0
- No. of strains at MIC 1 (Shigella spp. (40); MIC distribution, 40 strains): 2
- No. of strains at MIC 2 (Shigella spp. (40); MIC distribution, 40 strains): 0
- No. of strains at MIC 4 (Shigella spp. (40); MIC distribution, 40 strains): 14
- No. of strains at MIC 8 (Shigella spp. (40); MIC distribution, 40 strains): 18
- No. of strains at MIC ≦0.03 (Shigella spp. (40); MIC distribution, 40 strains): 0
- No. of strains at MIC ≧16 (Shigella spp. (40); MIC distribution, 40 strains): 6
- MIC 50% (Shigella spp. (40); Shigella spp., 40 strains): 8 µg/mL (≈ 9.47 µM)
- MIC 90% (Shigella spp. (40); Shigella spp., 40 strains): 16 µg/mL (≈ 18.9 µM)
- Emax, Δ log10 CFU at 24 h compared to the post-phagocytosis inoculum [2]: −0.66 Δ log10 CFU
- Emax, CFU decrease from original inoculum [2]: −0.66 log10 units
- MIC 50% (C. jejuni (20); [5]): 1 µg/mL (≈ 1.18 µM)
- MIC 90% (C. jejuni (20); [5]): 4 µg/mL (≈ 4.73 µM)
- No. of strains at MIC 0.06 (C. jejuni (20); MIC distribution, 20 strains): 0
- No. of strains at MIC 0.12 (C. jejuni (20); MIC distribution, 20 strains): 0
- No. of strains at MIC 0.25 (C. jejuni (20); MIC distribution, 20 strains): 0
- No. of strains at MIC 0.5 (C. jejuni (20); MIC distribution, 20 strains): 0
- No. of strains at MIC 1 (C. jejuni (20); MIC distribution, 20 strains): 10
- No. of strains at MIC 2 (C. jejuni (20); MIC distribution, 20 strains): 0
- No. of strains at MIC 4 (C. jejuni (20); MIC distribution, 20 strains): 8
- No. of strains at MIC 8 (C. jejuni (20); MIC distribution, 20 strains): 2
- No. of strains at MIC ≦0.03 (C. jejuni (20); MIC distribution, 20 strains): 0
- No. of strains at MIC ≧16 (C. jejuni (20); MIC distribution, 20 strains): 0
- MIC50 (streptococci): 0.015 µg/mL (≈ 0.0178 µM)
- No. of strains at MIC 0.06 (Salmonella spp. (20); MIC distribution, 20 strains): 0
- No. of strains at MIC 0.12 (Salmonella spp. (20); MIC distribution, 20 strains): 0
- No. of strains at MIC 0.25 (Salmonella spp. (20); MIC distribution, 20 strains): 0
- No. of strains at MIC 0.5 (Salmonella spp. (20); MIC distribution, 20 strains): 0
- No. of strains at MIC 1 (Salmonella spp. (20); MIC distribution, 20 strains): 3
- No. of strains at MIC 2 (Salmonella spp. (20); MIC distribution, 20 strains): 4
- No. of strains at MIC 4 (Salmonella spp. (20); MIC distribution, 20 strains): 4
- No. of strains at MIC 8 (Salmonella spp. (20); MIC distribution, 20 strains): 4
- No. of strains at MIC ≦0.03 (Salmonella spp. (20); MIC distribution, 20 strains): 0
- No. of strains at MIC ≧16 (Salmonella spp. (20); MIC distribution, 20 strains): 5
- MIC 50% (Salmonella spp. (20); Salmonella spp., 20 strains): 4 µg/mL (≈ 4.73 µM)
- MIC 90% (Salmonella spp. (20); Salmonella spp., 20 strains): >16 µg/mL
- MIC50 (staphylococci): 0.06 µg/mL (≈ 0.071 µM)
- MIC ([3]; conventional susceptibility testing): 0.004 µg/mL (≈ 0.00473 µM)
- MIC ([3]; pH-adjusted broth, pH 6.5): 0.01 µg/mL (≈ 0.0118 µM)
- MIC ([3]; pH-adjusted broth, pH 7.4): 0.005 µg/mL (≈ 0.00592 µM)

SMILES: CC[C@H]1OC(=O)[C@H](C)[C@@H](O[C@H]2C[C@@](C)(OC)[C@@H](O)[C@H](C)O2)[C@H](C)[C@@H](O[C@@H]2O[C@H](C)C[C@H](N(C)C)[C@H]2O)[C@](C)(OC)C[C@@H](C)C(=O)[C@H](C)[C@@H](O)[C@]1(C)O [CLR, clarithromycin]
- Emax, Δ log10 CFU at 24 h compared to the post-phagocytosis inoculum [1]: −0.71 Δ log10 CFU
- MIC50 (Shigella spp. (40); Shigella spp., 40 strains): > 16 µg/mL
- MIC90 (Shigella spp. (40); Shigella spp., 40 strains): > 16 µg/mL
- MIC Range (Etest) (C. jejuni (20); C. jejuni, 20 strains): 1 to 8 µg/mL
- MIC Range (Etest) (C. jejuni (20); C. jejuni, 20 strains, listed as CLA): 1-8 (CLA) μg/ml
- MIC50 (C. jejuni (20)): 2 µg/mL (≈ 2.67 µM)
- MIC90 (C. jejuni (20)): 4 µg/mL (≈ 5.35 µM)
- % by category resistant (H. pylori (23); CLSI 2008 criteria): 8.7%
- % by category susceptible (H. pylori (23); CLSI 2008 criteria): 91.3%
- MIC50 (H. pylori (23); Helicobacter pylori): 0.03 µg/mL (≈ 0.0401 µM)
- MIC90 (H. pylori (23); Helicobacter pylori): 0.12 µg/mL (≈ 0.16 µM)
- MIC50 (H. pylori (23); [4]): ≤ 0.015 µg/mL
- MIC50 (Salmonella spp. (20)): 0.015 µg/mL (≈ 0.0201 µM)
- MIC90 (Salmonella spp. (20)): > 16 µg/mL

SMILES: C=CC1=C(C(=O)O)N2C(=O)[C@@H](NC(=O)/C(=N\O)c3csc(N)n3)[C@H]2SC1 [Cefdinir]
- % by category resistant (Shigella spp. (40); CLSI 2008 criteria): 0.0%
- % by category susceptible (Shigella spp. (40); CLSI 2008 criteria): 100.0%
- MIC50 (Shigella spp. (40); Shigella spp., 40 strains): 0.25 µg/mL (≈ 0.632 µM)
- MIC90 (Shigella spp. (40); Shigella spp., 40 strains): 0.25 µg/mL (≈ 0.632 µM)
- % by category resistant (Salmonella spp. (20); CLSI 2008 criteria): 0.0%
- % by category susceptible (Salmonella spp. (20); CLSI 2008 criteria): 100.00%
- MIC50 (Salmonella spp. (20)): 0.25 µg/mL (≈ 0.632 µM)
- MIC90 (Salmonella spp. (20)): 0.5 µg/mL (≈ 1.26 µM)

SMILES: CCC[C@@H]1C[C@@H](C(=O)N[C@@H]([C@H]2O[C@H](SC)[C@H](O)[C@@H](O)[C@H]2O)[C@H](C)Cl)N(C)C1 [Clindamycin]
- MIC50 (Shigella spp. (40); Shigella spp., 40 strains): > 4 µg/mL
- MIC90 (Shigella spp. (40); Shigella spp., 40 strains): > 4 µg/mL

SMILES: CC[C@H]1OC(=O)[C@H](C)[C@@H](O[C@H]2C[C@@](C)(OC)[C@@H](O)[C@H](C)O2)[C@H](C)[C@@H](O[C@@H]2O[C@H](C)C[C@H](N(C)C)[C@H]2O)[C@](C)(O)C[C@@H](C)C(=O)[C@H](C)[C@@H](O)[C@]1(C)O [Erythromycin]
- MIC50 (Shigella spp. (40); Shigella spp., 40 strains): > 4 µg/mL
- MIC90 (Shigella spp. (40); Shigella spp., 40 strains): > 4 µg/mL
- MIC Range (Etest) (C. jejuni (20); C. jejuni, 20 strains): 0.5 to 4 µg/mL
- MIC50 (C. jejuni (20)): 2 µg/mL (≈ 2.73 µM)
- MIC90 (C. jejuni (20)): 4 µg/mL (≈ 5.45 µM)
- MIC50 (Salmonella spp. (20)): > 4 µg/mL
- MIC90 (Salmonella spp. (20)): > 4 µg/mL
